The results in this text go back to patent US20260306641A1, “HELICASE DEGRADERS” (priority 2023, published 2026).

This experiment has as its system T1, human CMG helicase (hCMG).
T1 construct: made in house; host or cells: High Five insect cells, baculovirus (11 viruses co-infected)
Description: hCMG ATPase activity, FP ADP^2 Transcreener assay. In kind it is biochemical. The settings on record: primary FP ATPase assay. The procedure:
The fluorescent-polarization (FP) ADP-sensing assays were performed using the Transcreener® ADP^2 FP assay kit (cat #3010-1K, Bellbrook Labs). For hCMG inhibitor screening, assays were performed at 37° C. for 1 hr in 10 μl reactions in a 384-well plate (cat. #4514, Corning) using 2 μL of hCMG (~15 fmol), 25 mM Hepes-NaOH (pH 7.5), 10 mM NaCl, 0.5 mM ATP, 10 mM magnesium acetate, 1 mM DTT, 0.1 mg/ml BSA, and DNA fork substrates. […] Selected inhibitors or samples from a chemical library were added into the reactions when conducting the screening or testing inhibitor effectiveness. The NCI Diversity Set VI chemical library was obtained from the National Cancer Institute (Bethesda, MD).
The window of sensitivity for the ADP-sensing assays is determined by setting up two 10 μL control samples without any added hCMG helicase: a Low-FP mixture (4 nM ADP Alexa Fluor-633 Tracer alone) and a High-FP mixture (4 nM ADP Alexa Fluor-633 Tracer plus patented anti-ADP^2 Antibody). The amount of ADP^2 Antibody used had to be adjusted to account for the use of 500 μM ATP in our hCMG assays, versus 10 μM ATP in enzyme reactions typically assessed with standard kits prepared by BellBrook Labs. […] This was done according to the manufacturer by performing a titration with increasing ADP^2 Antibody, fixed 4 nM ADP Alexa Fluor-633 Tracer, and 500 μM ATP to determine the ~EC80-85 for millipol (mP) changes, which determined the optimal ADP^2 Antibody concentration to use as 0.64 mg/ml (FIG. 9A). Samples are read with a Perkin Elmer Envision II plate reader with optimized Cy5 (far-red) FP-compatible mirror and cubes (cat #2100-8390, Perkin Elmer). The Low-FP sample is the least polarized and gives a low mP reading, while the High-FP sample is the most polarized and gives the highest mP reading. The difference between the Low-FP and High-FP values defines the FP assay window, which is normally in a range of 150-200 mP under ideal conditions for screening purposes. The hCMG helicase hydrolyzes ATP to ADP and decreases the mP reading within this window, with an ideal change (ΔmP) in the FP window of at least 50% to be in a readable range for inhibitor screening (as per manufacturer). Potential hCMG chemical inhibitors reverse this effect and cause the mP readings to increase.
We performed a titration with increasing and decreasing concentrations of ADP and ATP, respectively, to assess the sensitivity of the FP assay in detecting ADP production (FIG. 9B). Consistent with the stated manufacturer predictions, the assay can reliably detect 1-3% changes in ADP production (i.e., 5-15 μM ADP production) in starting concentrations of ATP of 500 μM, with a Z′ efficiency between 0.6-0.8 (determined following manufacturer protocols).
Once the hCMG enzyme reactions are complete, 10 μL of 1× Stop Solution and Detection Buffer (buffer from BellBrook Labs; containing 4 nM ADP Alexa Fluor-633 Tracer plus ADP^2 Antibody) are added to each reaction, and to the High-FP control. The Low-FP control receives 10 μL of 1× Stop Solution and Detection Buffer containing only 4 nM ADP Alexa Fluor-633 Tracer (no Antibody). Samples are incubated at 25° C. for 1 hr, then read in the plate reader. […] Plate readings from these tests of potential positive hits should be similar to that seen with the Low-FP control, or such hits may instead be false-positives.

T1 sequence (P49736 whole entry): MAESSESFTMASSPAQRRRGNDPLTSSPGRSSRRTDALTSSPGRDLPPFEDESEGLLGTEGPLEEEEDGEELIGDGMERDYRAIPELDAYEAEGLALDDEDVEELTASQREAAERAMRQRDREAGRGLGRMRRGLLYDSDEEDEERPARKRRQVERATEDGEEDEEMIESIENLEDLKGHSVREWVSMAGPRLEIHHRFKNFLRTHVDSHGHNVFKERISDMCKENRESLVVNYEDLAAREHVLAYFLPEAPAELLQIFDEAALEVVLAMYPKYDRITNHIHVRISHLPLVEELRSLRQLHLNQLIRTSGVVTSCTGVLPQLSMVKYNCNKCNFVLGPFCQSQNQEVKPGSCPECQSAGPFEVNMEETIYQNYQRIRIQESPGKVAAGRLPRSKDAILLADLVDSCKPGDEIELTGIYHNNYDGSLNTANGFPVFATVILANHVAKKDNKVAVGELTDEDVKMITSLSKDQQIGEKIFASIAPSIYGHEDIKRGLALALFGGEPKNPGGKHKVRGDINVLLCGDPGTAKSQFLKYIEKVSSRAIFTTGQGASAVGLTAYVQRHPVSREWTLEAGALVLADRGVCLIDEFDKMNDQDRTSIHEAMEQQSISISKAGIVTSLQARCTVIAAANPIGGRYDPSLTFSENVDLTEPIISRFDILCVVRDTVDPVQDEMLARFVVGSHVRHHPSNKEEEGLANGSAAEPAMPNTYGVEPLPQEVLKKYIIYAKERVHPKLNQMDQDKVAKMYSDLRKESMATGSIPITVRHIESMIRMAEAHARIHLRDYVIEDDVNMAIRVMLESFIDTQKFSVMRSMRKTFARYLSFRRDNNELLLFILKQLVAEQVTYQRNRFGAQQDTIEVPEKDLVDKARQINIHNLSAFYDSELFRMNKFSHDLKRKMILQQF
T1 sequence (P25205 whole entry, further chain): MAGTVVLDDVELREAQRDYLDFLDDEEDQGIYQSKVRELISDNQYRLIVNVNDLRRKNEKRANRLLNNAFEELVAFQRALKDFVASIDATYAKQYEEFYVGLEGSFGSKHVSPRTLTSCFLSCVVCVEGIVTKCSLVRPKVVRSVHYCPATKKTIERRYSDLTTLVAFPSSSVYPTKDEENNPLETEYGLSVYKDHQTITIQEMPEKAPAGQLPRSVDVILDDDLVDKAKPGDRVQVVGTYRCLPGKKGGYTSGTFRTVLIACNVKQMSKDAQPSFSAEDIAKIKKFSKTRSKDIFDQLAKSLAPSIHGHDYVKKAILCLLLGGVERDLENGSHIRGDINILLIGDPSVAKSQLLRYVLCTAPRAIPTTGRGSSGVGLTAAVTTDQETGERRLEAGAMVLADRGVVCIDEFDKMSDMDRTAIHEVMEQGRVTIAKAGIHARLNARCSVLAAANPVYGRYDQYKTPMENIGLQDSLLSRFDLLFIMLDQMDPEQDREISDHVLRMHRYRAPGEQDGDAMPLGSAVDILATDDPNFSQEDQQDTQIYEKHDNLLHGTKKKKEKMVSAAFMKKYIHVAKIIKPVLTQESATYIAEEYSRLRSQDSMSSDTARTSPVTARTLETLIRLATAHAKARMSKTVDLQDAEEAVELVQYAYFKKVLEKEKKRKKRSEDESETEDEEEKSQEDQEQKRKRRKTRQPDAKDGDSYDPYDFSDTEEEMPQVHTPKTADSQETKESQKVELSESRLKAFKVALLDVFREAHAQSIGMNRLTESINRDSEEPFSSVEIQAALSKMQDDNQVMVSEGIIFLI
T1 sequence (P33991 whole entry, further chain): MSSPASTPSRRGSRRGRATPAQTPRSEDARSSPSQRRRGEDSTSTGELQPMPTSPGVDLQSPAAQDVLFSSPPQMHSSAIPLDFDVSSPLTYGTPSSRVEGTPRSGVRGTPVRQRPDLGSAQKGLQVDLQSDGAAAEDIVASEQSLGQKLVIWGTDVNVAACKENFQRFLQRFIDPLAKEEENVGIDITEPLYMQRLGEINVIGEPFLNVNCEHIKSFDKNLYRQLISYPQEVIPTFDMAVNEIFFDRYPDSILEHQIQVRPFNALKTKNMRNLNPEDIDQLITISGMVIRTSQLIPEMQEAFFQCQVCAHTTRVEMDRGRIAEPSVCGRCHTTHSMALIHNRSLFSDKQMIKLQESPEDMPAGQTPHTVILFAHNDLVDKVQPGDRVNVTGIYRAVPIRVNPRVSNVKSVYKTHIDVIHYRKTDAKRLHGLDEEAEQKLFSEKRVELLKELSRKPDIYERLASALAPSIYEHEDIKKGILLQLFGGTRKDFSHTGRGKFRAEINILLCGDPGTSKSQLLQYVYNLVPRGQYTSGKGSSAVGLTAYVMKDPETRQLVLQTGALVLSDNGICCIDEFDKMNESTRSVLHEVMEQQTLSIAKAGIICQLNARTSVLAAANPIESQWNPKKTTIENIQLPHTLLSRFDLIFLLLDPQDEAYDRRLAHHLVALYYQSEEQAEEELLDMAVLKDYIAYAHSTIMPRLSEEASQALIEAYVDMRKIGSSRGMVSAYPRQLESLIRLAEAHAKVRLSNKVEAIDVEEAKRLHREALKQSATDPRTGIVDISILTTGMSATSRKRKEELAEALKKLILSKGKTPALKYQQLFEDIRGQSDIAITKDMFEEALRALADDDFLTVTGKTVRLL
T1 sequence (P33992 whole entry, further chain): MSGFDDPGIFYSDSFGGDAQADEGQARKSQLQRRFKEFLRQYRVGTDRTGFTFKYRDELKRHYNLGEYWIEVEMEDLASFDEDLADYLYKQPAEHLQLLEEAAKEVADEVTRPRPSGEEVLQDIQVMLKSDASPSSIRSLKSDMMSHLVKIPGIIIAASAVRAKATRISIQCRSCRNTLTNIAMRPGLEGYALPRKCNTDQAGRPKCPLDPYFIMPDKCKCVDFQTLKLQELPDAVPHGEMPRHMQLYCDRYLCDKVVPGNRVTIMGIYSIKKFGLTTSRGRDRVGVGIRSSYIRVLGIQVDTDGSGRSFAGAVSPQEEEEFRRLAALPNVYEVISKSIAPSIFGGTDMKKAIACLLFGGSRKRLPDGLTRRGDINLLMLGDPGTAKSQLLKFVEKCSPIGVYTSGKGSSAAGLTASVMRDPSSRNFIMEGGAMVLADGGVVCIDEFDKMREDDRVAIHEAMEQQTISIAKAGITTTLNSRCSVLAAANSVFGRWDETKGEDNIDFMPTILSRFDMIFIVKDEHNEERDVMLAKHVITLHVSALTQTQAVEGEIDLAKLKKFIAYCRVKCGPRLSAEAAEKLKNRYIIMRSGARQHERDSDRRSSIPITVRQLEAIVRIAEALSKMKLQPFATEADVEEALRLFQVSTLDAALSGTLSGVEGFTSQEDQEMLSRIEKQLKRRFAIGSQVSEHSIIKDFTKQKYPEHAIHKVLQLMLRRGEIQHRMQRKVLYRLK
T1 sequence (Q14566 whole entry, further chain): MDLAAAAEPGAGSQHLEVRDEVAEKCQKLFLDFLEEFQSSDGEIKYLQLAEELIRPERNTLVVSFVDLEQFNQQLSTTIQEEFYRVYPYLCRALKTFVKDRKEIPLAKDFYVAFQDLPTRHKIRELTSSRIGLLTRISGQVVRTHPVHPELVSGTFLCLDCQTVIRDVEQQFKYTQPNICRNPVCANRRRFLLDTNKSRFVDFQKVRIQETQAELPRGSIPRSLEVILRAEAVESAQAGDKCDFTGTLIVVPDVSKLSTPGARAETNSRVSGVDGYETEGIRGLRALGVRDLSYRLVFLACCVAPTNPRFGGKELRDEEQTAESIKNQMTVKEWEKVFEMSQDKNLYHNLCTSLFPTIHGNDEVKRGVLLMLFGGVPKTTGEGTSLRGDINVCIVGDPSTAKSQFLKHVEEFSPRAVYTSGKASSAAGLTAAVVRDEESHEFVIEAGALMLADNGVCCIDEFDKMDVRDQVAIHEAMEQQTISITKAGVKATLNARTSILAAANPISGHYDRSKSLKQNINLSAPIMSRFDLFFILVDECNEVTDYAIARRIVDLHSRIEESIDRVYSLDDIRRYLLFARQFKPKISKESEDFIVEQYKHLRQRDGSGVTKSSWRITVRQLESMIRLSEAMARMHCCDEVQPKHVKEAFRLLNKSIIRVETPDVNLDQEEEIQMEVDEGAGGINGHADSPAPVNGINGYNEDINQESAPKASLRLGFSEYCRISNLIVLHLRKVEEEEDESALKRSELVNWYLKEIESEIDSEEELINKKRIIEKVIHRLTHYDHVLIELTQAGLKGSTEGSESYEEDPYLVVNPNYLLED
T1 sequence (P33993 whole entry, further chain): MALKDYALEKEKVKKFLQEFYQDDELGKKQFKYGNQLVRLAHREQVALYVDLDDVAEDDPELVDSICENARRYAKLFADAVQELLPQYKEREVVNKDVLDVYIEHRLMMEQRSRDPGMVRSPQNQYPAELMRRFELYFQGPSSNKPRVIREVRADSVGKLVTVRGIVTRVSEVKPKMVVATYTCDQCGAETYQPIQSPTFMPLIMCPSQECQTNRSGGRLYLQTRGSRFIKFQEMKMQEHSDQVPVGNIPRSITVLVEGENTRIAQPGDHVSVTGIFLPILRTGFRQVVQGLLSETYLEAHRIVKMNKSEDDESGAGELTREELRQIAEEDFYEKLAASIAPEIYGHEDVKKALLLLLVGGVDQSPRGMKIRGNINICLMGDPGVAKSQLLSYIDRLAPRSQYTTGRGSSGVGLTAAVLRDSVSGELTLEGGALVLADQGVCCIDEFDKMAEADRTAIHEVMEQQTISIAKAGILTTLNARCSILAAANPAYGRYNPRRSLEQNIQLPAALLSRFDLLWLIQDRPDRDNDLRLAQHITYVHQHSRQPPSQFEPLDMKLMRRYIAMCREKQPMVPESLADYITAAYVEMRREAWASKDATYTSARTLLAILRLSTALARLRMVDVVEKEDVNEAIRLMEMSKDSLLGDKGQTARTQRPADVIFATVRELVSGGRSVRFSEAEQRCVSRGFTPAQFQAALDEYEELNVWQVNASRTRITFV

As for `CO[C@@H]1[C@@H](OC(N)=O)[C@@H](O)[C@H](Oc2ccc3c(O)c(NC(=O)c4ccc(O)c(CC=C(C)C)c4)c(=O)oc3c2C)OC1(C)C` [novobiocin], the “inhibition of hCMG ATP hydrolysis” value is listed as “very little inhibitory effect on the hCMG”.
In the case of `CO[C@@H]1[C@@H](OC(=O)c2ccc(C)[nH]2)[C@@H](O)[C@H](Oc2ccc3c(O)c(NC(=O)c4c[nH]c(C(=O)Nc5c(O)c6ccc(O[C@@H]7OC(C)(C)[C@H](OC)[C@@H](OC(=O)c8ccc(C)[nH]8)[C@H]7O)c(C)c6oc5=O)c4C)c(=O)oc3c2C)OC1(C)C` [CA1], the “inhibition of hCMG ATP hydrolysis” value is on record as “potent inhibitor of ATP hydrolysis by the hCMG”.
